Assays:
Test in all cases: relative viability (nuclei count vs DMSO), 5 days (fraction); higher = more cells survive
Tivantinib + Lapatinib = compound: O=C1NC(=O)[C@@H](c2cn3c4c(cccc24)CCC3)[C@@H]1c1c[nH]c2ccccc12 [Tivantinib] + CS(=O)(=O)CCNCc1ccc(-c2ccc3ncnc(Nc4ccc(OCc5cccc(F)c5)c(Cl)c4)c3c2)o1 [Lapatinib] (partner 2 µM)
How it was run: (§1)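 Lung cancer cell lines were seeded in 1536-well plates and dosed by pin tool the next day, with either a single drug or a fixed anchor-drug dose combined with five library-drug doses (not always all listed) spaced in √10 steps. Five days later, one step fixed the cells and stained their nuclei (final 0.05% Triton X-100, 1% formaldehyde, 1 ug/ml Hoechst), and nuclei were counted on 4× images. Relative viability is the nuclei count in treated wells divided by the count in vehicle wells, and each value is the median of duplicate plates.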

Tivantinib + Navitoclax = compound: O=C1NC(=O)[C@@H](c2cn3c4c(cccc24)CCC3)[C@@H]1c1c[nH]c2ccccc12 [Tivantinib] + CC1(C)CCC(c2ccc(Cl)cc2)=C(CN2CCN(c3ccc(C(=O)NS(=O)(=O)c4ccc(N[C@H](CCN5CCOCC5)CSc5ccccc5)c(S(=O)(=O)C(F)(F)F)c4)cc3)CC2)C1 [Navitoclax] (partner 0.5 µM)
How it was run: as §1

Crenolanib + OSI-027 = compound: CC1(COc2ccc3c(c2)ncn3-c2ccc3cccc(N4CCC(N)CC4)c3n2)COC1 [Crenolanib] + COc1cccc2cc(-c3nc([C@H]4CC[C@H](C(=O)O)CC4)n4ncnc(N)c34)[nH]c12 [OSI-027] (partner 0.5 µM)
How it was run: as §1

Crenolanib + Navitoclax = compound: CC1(COc2ccc3c(c2)ncn3-c2ccc3cccc(N4CCC(N)CC4)c3n2)COC1 [Crenolanib] + CC1(C)CCC(c2ccc(Cl)cc2)=C(CN2CCN(c3ccc(C(=O)NS(=O)(=O)c4ccc(N[C@H](CCN5CCOCC5)CSc5ccccc5)c(S(=O)(=O)C(F)(F)F)c4)cc3)CC2)C1 [Navitoclax] (partner 0.5 µM)
How it was run: as §1

UMC-11
relative viability (Tivantinib + Lapatinib; first compound 0.01 µM): 1.03 | relative viability (Tivantinib + Lapatinib; first compound 0.03162 µM): 0.673 | relative viability (Tivantinib + Lapatinib; first compound 0.1 µM): 1.03 | relative viability (Tivantinib + Lapatinib; first compound 0.3162 µM): 1.08 | relative viability (Tivantinib + Navitoclax; first compound 0.01 µM): 0.316 | relative viability (Tivantinib + Navitoclax; first compound 0.03162 µM): 0.334 | relative viability (Tivantinib + Navitoclax; first compound 0.1 µM): 0.29 | relative viability (Tivantinib + Navitoclax; first compound 0.3162 µM): 0.34 | relative viability (Crenolanib + OSI-027; first compound 0.01 µM): 0.523 | relative viability (Crenolanib + OSI-027; first compound 0.03162 µM): 0.535 | relative viability (Crenolanib + OSI-027; first compound 0.1 µM): 0.538 | relative viability (Crenolanib + OSI-027; first compound 0.3162 µM): 0.546 | relative viability (Crenolanib + OSI-027; first compound 1 µM): 0.514 | relative viability (Crenolanib + Navitoclax; first compound 0.01 µM): 0.333 | relative viability (Crenolanib + Navitoclax; first compound 0.03162 µM): 0.331 | relative viability (Crenolanib + Navitoclax; first compound 0.1 µM): 0.301 | relative viability (Crenolanib + Navitoclax; first compound 0.3162 µM): 0.341 | relative viability (Crenolanib + Navitoclax; first compound 1 µM): 0.31
